Consider four compounds from US11236122B2, “Triterpene amine derivatives” (DFH THERAPEUTICS, priority 2018, dated 2022).

Series [1] deals with HIV-1 clade C K3016 in HUT-R5 cells. Briefly: Antiviral assay in HUT-R5 cells (p24), K3016. To be noted: Human immunodeficiency virus 1, 192 h, 8 days, mean ± SEM, 2 experiments. Format: cell-based. Here is the method: Antiviral assays. HUT-R5 cells were infected with normalized HIV-1 clade C K3016 virus stocks at 37° C. for 1 h. Cells were then maintained for 8 days in the presence of serial dilutions of the compounds assayed. After 8 days, the HIV-1 p24 concentration in the virus supernatants was measured to monitor virus replication. The 50% inhibitory concentrations (IC50s) were determined that reduced HIV-1 p24 levels to 50% relative to DMSO-only controls.

A further series in a line: in vitro. Format: cell-based. The following applies: human. Here is the method:
(§1) Human PBMC Preparation. Fresh human PBMCs were isolated from screened donors, seronegative for HIV and HBV (Biological Specialty Corporation, Colmar, Pa.). Cells were pelleted/washed 2-3 times by low speed centrifugation and resuspension in Dulbecco's phosphate buffered saline (PBS) to remove contaminating platelets. The leukophoresed blood was then diluted 1:1 with PBS and layered over 14 mL of Ficoll-Hypaque density gradient (Lymphocyte Separation Medium, Cell Grow #85-072-CL, density 1.078+/−0.002 g/mL) in a 50 mL centrifuge tube and then centrifuged for 30 min at 600×g. Banded PBMCs were gently aspirated from the resulting interface and subsequently washed twice with PBS by low speed centrifugation. After the final wash, cells were enumerated by trypan blue exclusion and re-suspended at 1×10^6 cells/mL in RPMI 1640 supplemented with 15% Fetal Bovine Serum (FBS), 2 mM L-glutamine, 100 U/mL penicillin, […] streptomycin, and 4 μg/mL Phytohemagglutinin (PHA; Sigma, St. Louis, Mo.; cat #L1668). The cells were allowed to incubate for 48-72 h at 37° C. After incubation, PBMCs were centrifuged and resuspended in RPMI 1640 with 15% FBS, L-glutamine, penicillin, streptomycin, non-essential amino acids (MEM/NEAA; Hyclone; cat #SH30238.01), and 20 U/mL recombinant human IL-2 (R&D Systems Inc., Minneapolis, Minn.; cat #202IL). PBMCs were maintained in this medium at a concentration of 1-2×10^6 cells/mL, with twice-weekly medium changes until they were used in the assay protocol. Monocytes-derived-macrophages were depleted from the culture as the result of adherence to the tissue culture flask.
(§2) PBMC Assay. For the standard PBMC assay, PHA stimulated cells from at least two normal donors were pooled (mixed together), diluted in fresh medium to a final concentration of 1×10^6 cells/mL, and plated in the interior wells of a 96 well round bottom microplate at 50 μL/well (5×10^4 cells/well) in a standard formate developed by the Infectious Disease Research Department of the SRI. Pooling (mixing) of mononuclear cells from more than one donor was used to minimize the variability observed between individual donors, which results from quantitative and qualitative differences in HIV infection and overall response to the PHA and IL-2 of primary lymphocyte populations. Each plate contains virus control wells (cells plus virus) and experimental wells (drug plus cells plus virus). Test drug dilutions were prepared at a 2× concentration in microtiter tubes and 100 μL of each concentration was placed in appropriate wells using the standard format. 50 μL of a predetermined dilution of virus stock was placed in each test well (final MOI≈0.1). Separate plates were prepared identically without virus for drug cytotoxicity studies using an MTS assay system (described below; cytotoxicity plates also include compound control wells containing drug plus media without cells to control for colored compounds that affect the MTS assay). The PBMC cultures were maintained for seven days following infection at 37° C., 5% CO2. After this period, cell-free supernatant samples were collected for analysis of reverse transcriptase activity, and compound cytotoxicity was measured by addition of MTS to the separate cytotoxicity plates for determination of cell viability. Wells were also examined microscopically and any abnormalities were noted.
(§3) MTS Staining for PBMC Viability to Measure Cytotoxicity. At assay termination, the uninfected assay plates were stained with the soluble tetrazolium-based dye MTS (CellTiter 96 Reagent, Promega) to determine cell viability and quantify compound toxicity. MTS is metabolized by the mitochondria enzymes of metabolically active cells to yield a soluble formazan product, allowing the rapid quantitative analysis of cell viability and compound cytotoxicity. […] At termination of the assay, […] of MTS reagent was added per well and the microtiter plates were then incubated at 37° C., 5% CO2 to assess cell viability. […]

The subject of the next series is human PBMCs. Briefly: in vitro. Format: cell-based. The following applies: 7 days. Here is the method: as §1, §2, §3
Series [2] is described as follows: Cytotoxicity assay CellTitre-Blue, HUT-R5. To be noted: human, HUT-R5 cells, read-out: Cytotoxicity CC50 HUTR5. Format: cell-based. As for the experimental part:
(§4) Cytotoxicity assays. Cytotoxicity assays were performed using the CellTitre-Blue Cell Viability Assay kit (Promega, USA) as per manufacturer's recommendations. HEK-293T and HUT-R5 cell lines were maintained in the presence of serial dilutions of the compounds for 4 days and treated with CellTitre-Blue reagent for 4 h at 37° C. The fluorescent signals were recorded at 530/25excision and 590/35emission using BioTek microplate reader. The 50% cytotoxicity concentrations (CC50s) were determined as the compound concentrations that reduced the fluorescent signals to 50% relative to DMSO only controls.

Another series concerns pNL4-3 SP1-V7A. The series is described as follows: CA-SP1 accumulation assay, SP1-V7A derivative. The series is classed as cell-based, HIV-1. To be noted: HeLa or 293T cells; for % CA-SP1 Accumulation 10 nM SP1 V7A: 10 nM compound. The essentials:
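HeLa or 293T cells transfected with proviral clone, maturation inhibitors present through transfection and labeling; at 24 h, [^35S]Met/Cys labeling 2-3 h. Virions pelleted by ultracentrifugation, lysed, CA and CA-SP1 resolved by SDS-PAGE and quantified by phosphorimaging.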

The nature of series [3]: Cytotoxicity assay CellTitre-Blue, HEK-293T. The series is classed as cell-based. The following applies: human, HEK-293T cells, read-out: Cytotoxicity CC50 HEK293T. Here is the method:
as §4

Molecules are shown by their SMILES. Structures can show the parent of a compound that is named as a salt. Bounds are passed on as bounds.

For `C=C(C)[C@@H]1CC[C@]2(CCNCCN3CCN(S(C)(=O)=O)CC3)CC[C@]3(C)[C@H](CC[C@@H]4[C@@]5(C)CC[C@H](OC(=O)CC(C)(C)C(=O)O)C(C)(C)[C@@H]5CC[C@]43C)[C@@H]12` [Compound 51ff, (3β)-17-[2-[[2-[4-(Methylsulfonyl)piperazin-1-yl]ethyl]amino]ethyl]-28-norlup-20(29)-en-3-ol, 3-(1-Hydrogen 2,2-Dimethylbutanedioate)], the IC50 in series [1] stood at 2.27 ± 0.56 nM. In addition, the CC50 at 7 days in the series “in vitro” is > 1000 nM. For the same compound, in the series with human PBMCs, the CC50 was > 1000 nM. Besides, the CC50 at 4 days is > 500 nM in series [2] and > 100 nM in series [3]. Further, the “% CA-SP1 Accumulation 10 nM SP1 V7A” value in the series on pNL4-3 SP1-V7A was 31.1 (3) %.

Take `C=C(C)[C@@H]1CC[C@]2(CCNC3CCN(CCO)CC3)CC[C@]3(C)[C@H](CC[C@@H]4[C@@]5(C)CC[C@H](OC(=O)CC(C)(C)CC(=O)O)C(C)(C)[C@@H]5CC[C@]43C)[C@@H]12` [Compound 51f, (3β)-17-[2-[[1-(2-Hydroxyethyl)piperidin-4-yl]amino]ethyl]-28-norlup-20(29)-en-3-ol, 3-(Hydrogen 3,3-Dimethylpentanedioate), Bis(trifluoroacetate) Salt]: the CC50 at 7 days in the series “in vitro” was > 1000 nM. In addition, the CC50 with human PBMCs was > 1000 nM. In addition, the “% CA-SP1 Accumulation 100 nM SP1 V7A” value with pNL4-3 SP1-V7A (100 nM compound) is 43.4 (3) %.

In series [1], `C=C(C)[C@@H]1CC[C@]2(CCNCCN3CCN(Cc4ccccc4)CC3)CC[C@]3(C)[C@H](CC[C@@H]4[C@@]5(C)CC[C@H](OC(=O)CC(C)(C)C(=O)O)C(C)(C)[C@@H]5CC[C@]43C)[C@@H]12` [Compound 51hh, (3β)-17-[2-[[2-[4-(Phenylmethyl)piperazin-1-yl]ethyl]amino]ethyl]-28-norlup-20(29)-en-3-ol, 3-(1-Hydrogen 2,2-Dimethylbutanedioate)] displayed an IC50 of 3.89 ± 0.18 nM. Further, the 50% cytotoxic concentration (CC50) at 7 days in the series “in vitro” was > 1000 nM. The CC50 in the series on human PBMCs is > 1000 nM. The CC50 at 4 days was > 500 nM in series [2] and > 100 nM in series [3]. In addition, the “% CA-SP1 Accumulation 10 nM SP1 V7A” value with pNL4-3 SP1-V7A is on record as 42.1 (5) %.

Consider `C=C(C)[C@@H]1CC[C@]2(CCNCCN3CCS(=O)(=O)CC3)CC[C@]3(C)[C@H](CC[C@@H]4[C@@]5(C)CC[C@H](OC(=O)CC(C)(C)C(=O)O)C(C)(C)[C@@H]5CC[C@]43C)[C@@H]12` [Compound 51ee, (3β)-17-[[[2-[2-(1,1-Dioxothiomorpholin-4-yl)]Ethyl]Amino]Ethyl]-28-norlup-20(29)-en-3-ol, 3-(1-Hydrogen 2,2-Dimethylbutanedioate)], for which the IC50 in series [1] was determined as 3.6 ± 0.22 nM. Further, the CC50 at 7 days in “in vitro” was > 1000 nM. Besides, the half-maximal cytotoxic concentration (CC50) in the series on human PBMCs was > 1000 nM. Moreover, the CC50 at 4 days in series [2] is > 500 nM; in series [3] it was > 100 nM. Also, in the series with pNL4-3 SP1-V7A, the “% CA-SP1 Accumulation 10 nM SP1 V7A” value turned out to be 35.1%.

The IC50 is the concentration that inhibits the measured activity by half. A high value points to weaker potency in that assay. One may read the CC50 as the concentration that lowers cell viability or growth by half.
